Test results taken from patent US20250186751A1, “BREATH-POWERED NASAL DEVICES FOR TREATMENT OF TRAUMATIC BRAIN INJURY (TBI), INCLUDING CONCUSSION, AND METHODS AND METHODS” (Odyssey Health, Inc., priority 2021, published 2025).

What was measured:
[1] = system: animal models of concussion; assay: animal models of concussion; assay type: in vivo
Excerpt: (§1) ent-19-norprogesterone is a fully synthetic, non-naturally, occurring neurosteroid.

[2] = preclinical studies of neuroprotective effects; assay type: in vivo; conditions: compared to related neurosteroids
Excerpt: as §1

Q: Which “behavioral pathology associated with brain injury symptoms such as memory impairment, anxiety, and motor/sensory performance” value [1] does the source give for `CC(=O)[C@@H]1CCC2C3CCC4=CC(=O)CC[C@H]4C3CC[C@]21C` (single isomer, unassigned) [ent-19-norprogesterone, ent-19-norpregn-4-ene-3,20-dione] here?
A: Its value is “reduces the behavioral pathology”.

Q: And the neuroprotective effects [2]?
A: Its neuroprotective effects is “equivalent, if not superior, neuroprotective effects compared to related neurosteroids”.
